Measurements taken from paper PMC12843137, “Fine-Tuning Side Chain Substitutions: Impacts on the Lipophilicity–Solubility–Permeability Interplay in Macrocyclic Peptides” (Marine Drugs, 2025).
Converted amounts (≈) assume the structure as drawn. Marks after values point to notes of the source that are not given here.

What was measured:
[1] = log D7.4 by shake-flask method (1-octanol/PBS); type: physicochemical; conditions: 1-octanol/PBS, pH 7.4, 1-Octanol/PBS pH 7.4, shake-flask
Procedure: (§1) One explanation for the high IC50 values (i.e., low activity) of the new compounds is their potential poor solubility in aqueous solution or inadequate lipophilicity. To investigate this hypothesis, we determined kinetic solubility in […] phosphate buffer at pH 7.4 (Table 1). […] The remaining two compounds, BE and 29, show low solubilities (<0.1 μM). […] Additionally, since approximately 95% of drugs are ionizable, assessment of lipophilicity at pH 7.4 (log D7.4) is essential during the initial phases of drug discovery. In this study, we employ the shake-flask method to evaluate this property. […] Because lipophilicity directly reflects compound–membrane interaction, the activity of these compounds against PANC-1 cells likely stems from their interaction with the cell membrane.
The basic solution is titrated with the acidic solution to achieve pH 7.4, with the pH verified and adjusted to 7.4 ± 0.1 on the experiment day. Saturated 1-octanol and PBS (pH 7.4) are also prepared. The stock solutions of test compounds and control compound progesterone are prepared in DMSO at a concentration of 10 mM (0.666 mM: compound 39). The detailed procedure for log D determinations can be found in the SI. […]
4. Procedure for log D determinations […]
µL of phosphate buffer saturated 1-octanol to get a concentration of 300 µM working solution. 20 µL of 300 µM compound solution is placed in order into their proper 96-well rack followed by the addition of 980 µL of 1-octanol saturated phosphate buffer. One stir stick is added to each vial and vials are sealed molded PTFE/Silicone plugs. Then the log D plate is transferred to the Eppendorf Thermomixer Comfort plate shaker and shaken at 25°C at 1,100 RPM for 1 h. The assay is performed in duplicate. After completion of 1 h, the stir sticks are removed using a big magnet. The samples are then centrifuged at 25°C at 20,000 g for 20 minutes to separate the phases, and syringe is used to remove the lower (buffer) phases to the empty tubes. Then the buffer phase is diluted with the same volume of acetonitrile/ultrapure water (50%/50%) for LC-MS/MS analysis. 300 µM working solution is diluted with acetonitrile/ultrapure water (50%/50%) to achieve a concentration of 3 µM. Then the 3 µM solution is diluted to 0.3 µM to get the total samples by adding 4 volumes of acetonitrile/ultrapure water (50%/50%) and 5 volumes of 1-octanol saturated Phosphate Buffer for LC-MS/MS analysis. […]
test compounds and control compound is placed in order into their 2.0 mL deep well plate, 500 µL of […]
followed by the addition of 500 µL of saturated PBS (pH 7.4). Seal the plate using a Silicone sealing mat.
Then the log D plate is transferred to the Eppendorf Thermomixer Comfort plate shaker and shaken at 25°C at 2,000 RPM for 2 h. After completion of 2 h, the samples are then centrifuged at 25°C at 3,220 g for 30 minutes to separate the phases, and pipette are used to remove the upper (1-octanol) and lower (buffer) phases to the empty tubes, respectively. Aliquots of 50 µL are taken from upper phases followed by addition of 450 µL of acetonitrile (containing internal standards (IS, 200 nM labetalol, 100 nM tolbutamide and 100 nM ketoprofen)). Mix with a pipette, and then aliquots of 50 µL are taken from the diluent followed by addition of 450 µL of acetonitrile (containing internal standards (IS, 200 nM labetalol, 100 nM tolbutamide and 100 nM ketoprofen)). […]

[2] = Kinetic solubility in PBS pH 7.4; type: physicochemical; conditions: PBS pH 7.4, 25 °C; for solubility at 2 h: sodium phosphate buffer (PBS), 25 °C, pH 7.4, aqueous buffer, kinetic from dmso stock
Procedure: as §1
Solubility is determined in 100 mM sodium phosphate buffer (PBS), pH 7.4. The stock solutions of test compound and control compound progesterone are prepared in DMSO at a concentration of 10 mM. 30 µL of working solutions of each sample is placed in order into their proper 96-well rack. 970 µL of PBS pH 7.4 is added into each vial of the cap-less Solubility Sample plate. The assay is performed in duplicate. Add one stir stick to each vial and seal using a molded PTFE/Silicone plug. Then the Solubility Sample plate is transferred to the Eppendorf Thermomixer Comfort plate shaker and shaken at 25 °C at 1100 RPM for 2 h. After completion of the 2 h, plugs are removed and the stir sticks are removed using a big magnet, the samples from the Solubility Sample plate are transferred into the filter plate. Using the Vacuum Manifold, all the samples are filtered. Aliquot of 5 µL is taken from the filtrate, followed by addition of 5 µL DMSO and 490 µL of a mixture of H2O and acetonitrile (1:1 in v/v). 200 μL of diluent is transferred to a new 96-well plate for LC-MS/MS analysis (see SI Bioanalytical Method for Solubility Measurement). The dilution factor is changed according to the solubility values and the LC-MS signal response.
MRM) / -4500 v (negative MRM). […]
13. Bioanalytical Method for Solubility Measurement
MS analysis: Triple Quad TM 5500 instrument from AB Inc (Canada) with an ESI interface
Injection volume: 1 μL, 3 μL, 5 μL or 10 μL
Column: ACQUITY UPLC BEH C18 (2.1 × 50 mmI.D. S-1.7 μm, 12 nm) Column
Mobile phase: 0.1% Ammonium hydroxide solution in water (A) and 0.1% Ammonium hydroxide solution
Column: XSelect Hss T3 2.5μm (2.1 × 50 mm) Column XP
Mobile phase: 0.1% formic acid in water (A) and 0.1% formic acid in acetonitrile (B)

PANC-1 cells = assay: CCK-8 antiproliferative assay, PANC-1; type: cell-based; conditions: Homo sapiens, CCK-8, 72 h, mean of three independent experiments
Procedure: The inhibitory activities against human pancreatic cancer PANC-1 cells of the synthesized compounds were evaluated by CCK-8 assay.
Human pancreatic cancer cell lines PANC-1, PATU8988T and BxPC3 were purchased from the Cancer Institute & Hospital of the Chinese Academy of Medical Sciences (Shanghai, China). All three cell lines were cultured in RPMI-DMEM medium containing 10% fetal bovine serum, cultured at a constant temperature of 37 °C in a humidified incubator with 5% CO2.
Pancreatic cancer cells are seeded into 96-well plates. After a proliferation time of 16 h, different concentrations of compounds are added into the corresponding wells and incubated for 72 h. 10 μL of CCK-8 solution is added into each well and incubated for 1–4 h at 37 °C. Shake the plates and read the OD value of each well at 450 nm on a microplate reader.

Row | logD [1] | solubility at 2 h [2] [µM] | IC50 (PANC-1 cells) [µM] | Solubility ([2]; 2 h) | Compound
1 | > 5 | 210 (≈ 139 µg/mL) |  |  | CCCCCCCCCCCCCC1OC(=O)CN(C)C(=O)C=CC(CN2CCN(C)CC2)NC(=O)CNC(=O)C(C)(O)C(=O)C1C (centres unmarked) [BE-NMP]
2 | 3.87 | < 0.1 | > 100 | <0.063 * µM | CCCCOc1ccc(-c2ccc(-c3ccc(Cn4cc(CCCCC[C@H]5OC(=O)CN(C)C(=O)/C=C/[C@@H](CN6CCN(C)CC6)NC(=O)CNC(=O)[C@@](C)(O)C(=O)[C@H]5C)nn4)cc3)cc2)cc1 [Compound 29]
3 |  | 268 (≈ 207 µg/mL) | > 100 |  | CC1C(=O)C(C)(O)C(=O)NCC(=O)NC(CN2CCN(C)CC2)C=CC(=O)N(C)CC(=O)OC1CCCCc1cn(CCCCCCCCNC(=N)N)nn1 (centres unmarked) [Compound 31]
4 | 0.93 | 259 (≈ 252 µg/mL) | > 100 |  | C[C@@H]1C(=O)[C@](C)(O)C(=O)NCC(=O)N[C@H](CN2CCN(C)CC2)/C=C/C(=O)N(C)CC(=O)O[C@H]1CCCCCc1cn(CCCCCCCNc2cccc3c2CN(C2CCC(=O)NC2=O)C3=O)nn1 (some centres unmarked) [Compound 40]
